Data on six compounds can be found in patent US8440810B2, “Riboswitches, methods for their use, and compositions for use with riboswitches” (Yale University, priority 2002, dated 2013).

Assay [1] concerns btuB leader-lacZ fusion. Description: btuB-lacZ expression assay. The assay is classed as cell-based, E. coli. The settings on record: wild-type btuB leader.
Assay [2] has as its target btuB mRNA leader mutants m4 and m5. The format is binding, Escherichia coli. As to conditions: mutants m4 and m5 (possible P4/P9 pseudoknot).
The test system of assay [3] is 202-nucleotide mRNA leader (btuB). Description: Equilibrium dialysis with btuB mRNA leader. In general terms: In equilibrium dialysis free small molecules cross a membrane that holds back macromolecules.
The target in assay [4] is 202-nucleotide leader sequence of the btuB mRNA. The format is binding, Escherichia coli. As to conditions: half-maximal structural modulation, 25° C., 20 mM MgCl2, pH 8.3; read-out: apparent KD. Here is the method: Precursor mRNA leader molecules were prepared by in vitro transcription from templates generated by PCR (see In vivo Expression Constructs and Assays section below) and 5′ ^32p-labeled using methods described previously (Soukup and Breaker, Allosteric nucleic acid catalysts. Curr. Opin. Struct. Biol. 10, […] (2000)). Approximately 20 nM of labeled RNA precursor was incubated as described in the brief description of FIG. 1. Accompanying digestions were carried out using reaction conditions similar to those described previously (Soukup and Breaker, Relationship between internucleotide linkage geometry and the stability of […]. RNA 5, 1308-1325 (1999)). […]
Metabolite-dependent conformational changes in the 202-nucleotide leader sequence of the btuB mRNA. […] The image was generated using a phosphorimager (Molecular Dynamics), and cleavage yields were quantitated by using ImageQuant software. […]
The btuB mRNA leader forms a saturable binding site for AdoCbl. […] 5′-^32P-labeled mRNA leader molecules were incubated, separated, and analyzed as described in the in the legend to FIG. 1A, and include identical control and marker lanes as indicated. […] Fraction cleaved values were normalized relative to the highest and lowest cleavage values measured for each location, including the values obtained upon incubation in the absence of AdoCbl. […]

The target in assay [5] is TPP-binding domain of A. thaliana (128-nucleotide RNA). Description: In-line probing of Arabidopsis TPP-binding domain. The arrangement: species or system Arabidopsis thaliana. The settings on record: read-out: apparent dissociation constant (KD).
Assay [6] addresses 240 thiC RNA. Briefly: In-line probing of 240 thiC RNA. The settings on record: Example 2, FIG. 7A; read-out: apparent KD. The assay is classed as binding, E. coli. As for the experimental part:
Some RNAs were subjected to no reaction, partial digestion with alkali, or partial digestion with RNase T1 (G-specific cleavage) (see FIG. 6a). Composite plots of the fraction of RNA cleaved at specific sites versus the logarithm of the concentration of ligand (e.g. FIG. 7a) were generated to provide an estimate of the apparent KD. Fraction cleaved values were normalized relative to the highest and lowest cleavage values measured for each site. […] Reactions were conducted and analyzed as described in above for FIG. 6A. […] The truncated RNA 111 thiC is boxed. Nucleotides enclosed in boxes identify an alternative pairing.

Assay [7] deals with 165 thiM RNA. The assay is classed as binding, E. coli. As to conditions: for Kd: read-out: apparent KD. The text has this: (§1) Specifically, TPP-dependent modulation of the spontaneous cleavage of RNA constructs was visualized by polyacrylamide gel electrophoresis (PAGE). […] Some RNAs were subjected to no reaction, partial digestion with alkali, or partial digestion with RNase T1 (G-specific cleavage) (see FIG. 6a). Composite plots of the fraction of RNA cleaved at specific sites versus the logarithm of the concentration of ligand (e.g. FIG. 7a) were generated to provide an estimate of the apparent KD. Fraction cleaved values were normalized relative to the highest and lowest cleavage values measured for each site.
NR, ^−OH and T1 represent RNAs subjected to no reaction, partial digestion with alkali, or partial digestion with RNase Tl (G-specific cleavage), respectively. Product bands representing cleavage after selected G residues are numbered and identified by filled arrowheads. The asterisk identifies modulation of RNA structure involving the Shine-Dalgarno (SD) sequence. Gel separations were analyzed using a phosphorimager (Molecular Dynamics) and quantitated using ImageQuant software.

The subject of assay [8] is 91 thiM RNA. The assay is classed as binding, E. coli.
Source text: as §1
ii. The thiM and thiC mRNA Leaders Serve as High-Affinity Metabolite Receptors. […] Arrows reflect the estimated concentration of TPP needed to attain half maximal modulation of RNA (apparent KD). […] The boxed data was generated using TPP with the truncated RNAs 91 thiM and 111 thiC. […] Details for the RNA probing analysis are similar to those described above in connection with FIG. 6A. The graphs were generated by ImageQuant software.

Assay [9] deals with ribD leader region. Description: In vitro transcription of ribD leader region. The assay is classed as biochemical. As to conditions: T7 or B. subtilis RNA polymerase, no additional protein factors.
Assay [10] concerns the target ribD RNA. Briefly: In-line probing of ribD RNA (RFN element). The format is binding, B. subtilis. The settings on record: read-out: apparent KD.
Method: To assess whether the RFN element of ribD was responsive to FMN, a fragment of the corresponding 5′-UTR was 5′-^32P labeled and incubated in the absence and presence of FMN, and the resulting fragments were analyzed by polyacrylamide gel electrophoresis (PAGE). […] To obtain values for apparent dissociation constant (apparent KD) for FMN, in-line probing assays were repeated with trace amounts of ribD RNA and increasing concentrations of FMN; the ligand concentration that correlates with half-maximal modulation of RNA structure should reflect the apparent KD.
Assay [11] concerns the target 179 lysC RNA. The format is binding, B. subtilis.
Assay [12] relates to lysC 5′-UTR template. Briefly: In vitro transcription termination assay, lysC 5′-UTR. The settings on record: 10 mM ligand, E. coli RNA polymerase, single-round.
Assay [13] concerns lysC 5′-UTR fused to lacZ reporter gene. The assay is classed as cell-based, B. subtilis. The settings on record: wild-type construct, minimal medium plus 1 mM compound.
Assay [14] has as its target 179 lysC RNA. Briefly: In-line probing of 179 lysC RNA. The settings on record: read-out: apparent KD; half-maximal structural modulation.
The target in assay [15] is RNA construct encompassing nucleotides 1 through 315 of the lysC 5′-UTR. As to conditions: read-out: apparent KD; aptamer plus expression platform.
Assay [16] deals with purine-binding aptamer from a pool of random-sequence RNAs. As to conditions: cited from earlier work.
Assay [17] has as its system 93 xpt RNA. Briefly: In-line probing of 93 xpt RNA. The format is binding, B. subtilis.
Assay [18] relates to xpt riboswitch variant with the C to U mutation at position 74, reporter construct. The assay is classed as cell-based, B. subtilis.
Assay [19] relates to purE RNA. Briefly: In-line probing of purE RNA. The format is binding, B. subtilis. The settings on record: 1 μM ligand.
Assay [20] deals with wild-type ydhL riboswitch fused to β-galactosidase reporter gene. Briefly: ydhL-lacZ β-galactosidase reporter expression. The format is cell-based, B. subtilis.
For assay [21], the system named is 93 xpt RNA. Description: Equilibrium dialysis with 93 xpt RNA. The assay is classed as binding, B. subtilis.
The test system of assay [22] is xpt-pbuX 5′-UTR fused to β-galactosidase reporter gene. Briefly: xpt-lacZ β-galactosidase reporter expression. The settings on record: wild-type xpt construct. The format is cell-based, B. subtilis.
Assay [23] concerns the target 201 xpt RNA. Briefly: In-line probing of 201 xpt RNA. As to conditions: read-out: apparent KD; limit of detection of the assay.
Assay [24] concerns 80 ydhL RNA. Briefly: In-line probing of 80 ydhL RNA. The format is binding, B. subtilis.
The test system of assay [25] is yitJ, yoaD and metK leader constructs. Description: In vitro transcription termination with T7 RNA polymerase, yitJ, yoaD and metK leaders. As to conditions: 50 μM.
Assay [26] has as its target 124 yitJ RNA. Description: In-line probing of 124 yitJ RNA. The format is binding, B. subtilis. The settings on record: minimized aptamer domain.
Assay [27] has as its system metI leader construct. The format is biochemical, B. subtilis.
Assay [28] concerns aptamer domain from B. subtilis cysH. The assay is classed as binding.
The target in assay [29] is 251 yitJ RNA. The format is binding, B. subtilis.

“Also recorded” adds a separate entry of the source. Read-outs that look alike come from different tables or passages of the source.

With `C/C1=C2/[N-]C([C@H](CC(N)=O)[C@@]2(C)CCC(=O)NC[C@@H](C)OP(=O)([O-])O[C@H]2[C@@H](O)[C@@H](n3cnc4cc(C)c(C)cc43)O[C@@H]2CO)[C@]2(C)N=C(/C(C)=C3N=C(/C=C4N=C1[C@@H](CCC(N)=O)C\4(C)C)[C@@H](CCC(N)=O)[C@]\3(C)CC(N)=O)[C@@H](CCC(N)=O)[C@]2(C)CC(N)=O.[CH2-][C@H]1O[C@@H](n2cnc3c(N)ncnc32)[C@@H](O)[C@@H]1O.[Co+3]` [AdoCbl, 5′-deoxy-5′-adenosylcobalamin], in assay [1], the “regulatory effector function on reporter gene inside cells” value is “down regulation of a reporter gene”. The Kd in [2] is around 5000 nM; in [4], around 300 nM. Also, the “restoration of equal tritium distribution by excess unlabeled compound” value in assay [3] (5,000 pmoles unlabeled compound added to chamber b) was “restores equal distribution of tritium”. Also, the “cpm ratio (chamber b relative to a)” value in [3] (3H-AdoCbl, mRNA leader in chamber b) is around 2.

For the compound `Cc1ncc(C[n+]2csc(CCO[P@](=O)(O)OP(=O)(O)O)c2C)c(N)n1` [TPP, thiamine pyrophosphate], the Kd in [5] was around 50 nM; in assay [6], 100 nM; in assay [7] (Example 2, FIG. 7A), 600 nM; in assay [7] (thiM RNA as reported in Example 3 (FIG. 13)), 500 nM. For the same compound, the structure modulation result in assay [7] (40 μM each compound) is given as “induce modulation”. In [8], the “improvement of apparent KD compared to the longer construct (165 thiM)” value is given as “approximately 20 fold”.

For `Cc1cc2nc3c(=O)[nH]c(=O)nc-3n(C[C@H](O)[C@H](O)[C@H](O)COP(=O)(O)O)c2cc1C` [FMN, flavin mononucleotide], the “transcription termination at the intrinsic terminator” value in [9] is “specifically induced by FMN”. The Kd in [10] is around 5 nM.

As for `NCCCC[C@H](N)C(=O)O` [L-lysine], the Kd in assay [11] (1 μM RNA, 3H-lysine 50 nM to 2.5 μM, read-out: apparent KD (Scatchard plot)) was around 1000 nM; in assay [14], around 1000 nM; in assay [15], around 500000 nM. Besides, the “fraction of tritiated L-lysine in chamber b” value in [11] (10 μM 179 lysC in chamber b, 50 nM 3H-lysine, 10 hr) is around 0.8. Moreover, in assay [11] (50 μM unlabeled compound, additional 10 hr), the “restoration of equal tritium distribution by unlabeled competitor” value is recorded as “symmetric distribution of tritium is restored”. In addition, in assay [12], the “terminated product relative to total transcription yield” value is on record as around 76%. For the same compound, in assay [13], the “repression of β-galactosidase reporter expression” value was “exhibits ligand-dependent modulation”.

For the compound `Nc1nc2nc[nH]c2c(=O)[nH]1` [guanine], the Kd in assay [16] was 1300 nM; in assay [17] (wild-type xpt RNA, Example 8 (FIG. 39a), read-out: apparent KD), at most 5 nM; in assay [23], at most 5 nM. The “modulation of spontaneous cleavage pattern” value in assay [17] (1 μM (adenine as much as 1 mM), 93 xpt and 201 xpt) is recorded as “undergo significant alteration”. In addition, the “regulation of reporter expression” value in assay [18] is reported as “loss of regulation upon addition of guanine”. For the same compound, in assay [19], the allosteric response result was “responds allosterically to guanine”. In addition, in assay [20], the β-galactosidase activity result is reported as “very low β-galactosidase activity”. For the same compound, in assay [21] (100 nM 3H-guanine, 300 nM RNA), the “tritiated guanine co-localized with RNA” value is listed as “greater than 90%”. Further, in assay [21] (500 nM analog), the “redistribution of 3H-guanine by excess unlabeled competitor” value is reported as “redistributes”. For the same compound, the “shift of distribution of tritiated ligand by RNA” value in assay [21] (Example 8: 100 nM tritiated ligand, 3 μM RNA) was “able to shift the distribution of tritiated guanine”. Besides, the “repression of β-galactosidase reporter expression” value in [22] is recorded as “repressed by guanine; also recorded: causes repression of β-galactosidase expression”. For the same compound, in assay [24], the “binding / structural modulation” value is given as “remains unchanged”.

Turning to `C[S+](CC[C@H](N)C(=O)O)C[C@H]1O[C@@H](n2cnc3c(N)ncnc32)[C@H](O)[C@@H]1O` (some centres unmarked) [SAM, S-adenosylmethionine], the transcription termination entry in [25] is “modest transcription termination”. The Kd is around 4 nM in [26] and around 200 nM in assay [29]. The same compound displayed a termination product in [27] (50 μM effector, wild-type metI) of around 75%. Moreover, in [27] (mutant Mabc (six mutations)), the “additional yield in transcription termination” value is around 20%. In assay [28], the “affinity poorer than that of yitJ” value is “more than 2 orders of magnitude”.
